Records with an inconclusive call do not appear. The source made the active and inactive calls.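 How the source made its calls: active means compounds whose fitted AC50 for signal loss is at most twice the top valid dose tested; inconclusive means flat curve with 30 to 70% inhibition, or poor fit; inactive means the rest.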
The compounds below were run against Leucyl-cystinyl aminopeptidase (Mus musculus) (UniProt Q8C129) (assay: IRAP inhibitors, dose response, selectivity assay for ERAP1 modulator project, biochemical, Leu-AMC fluorescence, cherry-picked samples, set 2 (AID 743340)). Conditions: purified IRAP, Leu-AMC cleavage fluorescence, 1 h.
Sequence of Leucyl-cystinyl aminopeptidase (Mus musculus) (Q8C129 whole entry, looked up): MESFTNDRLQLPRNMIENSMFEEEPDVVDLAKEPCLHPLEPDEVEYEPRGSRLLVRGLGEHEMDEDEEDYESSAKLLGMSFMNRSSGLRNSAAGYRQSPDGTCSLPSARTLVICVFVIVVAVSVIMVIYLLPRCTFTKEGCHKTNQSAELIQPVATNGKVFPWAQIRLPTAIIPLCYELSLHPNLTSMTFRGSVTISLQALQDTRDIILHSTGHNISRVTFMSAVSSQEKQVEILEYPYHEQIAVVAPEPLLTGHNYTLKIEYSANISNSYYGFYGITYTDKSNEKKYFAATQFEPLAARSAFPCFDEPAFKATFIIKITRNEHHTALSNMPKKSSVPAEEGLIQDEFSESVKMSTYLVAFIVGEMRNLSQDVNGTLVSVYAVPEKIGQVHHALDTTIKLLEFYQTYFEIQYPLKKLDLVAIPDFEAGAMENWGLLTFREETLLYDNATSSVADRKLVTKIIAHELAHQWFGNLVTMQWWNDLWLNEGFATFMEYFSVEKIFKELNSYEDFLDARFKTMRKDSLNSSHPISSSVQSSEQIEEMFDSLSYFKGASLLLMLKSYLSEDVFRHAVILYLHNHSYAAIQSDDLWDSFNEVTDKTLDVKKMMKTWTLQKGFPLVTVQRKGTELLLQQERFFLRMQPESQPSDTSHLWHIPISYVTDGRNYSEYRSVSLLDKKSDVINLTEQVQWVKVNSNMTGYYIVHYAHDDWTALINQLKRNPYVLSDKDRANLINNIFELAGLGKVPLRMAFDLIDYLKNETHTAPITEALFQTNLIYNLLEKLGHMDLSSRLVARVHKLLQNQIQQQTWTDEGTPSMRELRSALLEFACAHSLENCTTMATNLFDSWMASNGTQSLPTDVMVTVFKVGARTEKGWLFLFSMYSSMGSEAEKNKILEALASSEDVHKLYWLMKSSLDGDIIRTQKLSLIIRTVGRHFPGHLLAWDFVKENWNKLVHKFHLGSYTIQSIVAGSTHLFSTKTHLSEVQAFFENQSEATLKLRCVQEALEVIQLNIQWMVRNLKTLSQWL

Row | Structure (SMILES) | AC50
1 | CCCN(C)C[C@@H]1OCCCC[C@@H](C)Oc2ccc(NS(=O)(=O)c3c(C)noc3C)cc2C(=O)N([C@H](C)CO)C[C@@H]1C | > 20 µM (inactive)
2 | CCCN(C)C[C@@H]1OCCCC[C@@H](C)Oc2ccc(NS(=O)(=O)c3ccc(OC)cc3)cc2C(=O)N([C@H](C)CO)C[C@@H]1C | 11.2 µM
3 | O=C(O)c1ccccc1NS(=O)(=O)c1cccc(-n2sc3ccccc3c2=O)c1 | > 22 µM (inactive)
4 | CC(C)[C@@H](C(=O)N[C@@H](CCc1ccc(O)cc1)C(=O)O)N(C)C(=O)[C@H](CO)NC(=O)[C@@H](O)[C@H](N)CCCCCCCCl | 0.0449 µM

Same assay, conditions: purified IRAP, Leu-AMC cleavage fluorescence, 1 h; at 2.6 µM (top of the series)

Row | Structure (SMILES) | activity change, negative = inhibition
5 | C[C@@H]1CCCCO[C@@H](CN(C)C(=O)CCC(F)(F)F)[C@@H](C)CN([C@@H](C)CO)C(=O)c2cc(NS(=O)(=O)c3ccccc3)ccc2O1 | inactive

Same assay, conditions: purified IRAP, Leu-AMC cleavage fluorescence, 1 h; at 5 µM (top of the series)

Row | Structure (SMILES) | activity change, negative = inhibition
6 | CCCN(C)C[C@@H]1OCCCC[C@@H](C)Oc2ccc(NS(=O)(=O)c3ccc(C)cc3)cc2C(=O)N([C@@H](C)CO)C[C@@H]1C | inactive
7 | C[C@@H]1CCCCO[C@@H](CN(C)C(=O)CCC(F)(F)F)[C@@H](C)CN([C@@H](C)CO)C(=O)c2cc(NS(=O)(=O)c3ccc(Cl)cc3)ccc2O1 | inactive

Same assay, conditions: purified IRAP, Leu-AMC cleavage fluorescence, 1 h; at 5.6 µM (top of the series)

Row | Structure (SMILES) | activity change, negative = inhibition
8 | C[C@@H]1CCCCO[C@@H](CN(C)Cc2ccccc2)[C@@H](C)CN([C@H](C)CO)C(=O)c2cc(NS(=O)(=O)c3cccs3)ccc2O1 | inactive
9 | C[C@@H]1CCCCO[C@@H](CN(C)Cc2ccc3c(c2)OCO3)[C@@H](C)CN([C@@H](C)CO)C(=O)c2cc(NS(=O)(=O)c3ccccc3)ccc2O1 | inactive

Same assay, conditions: purified IRAP, Leu-AMC cleavage fluorescence, 1 h; at 10 µM (top of the series)

Row | Structure (SMILES) | activity change, negative = inhibition
10 | C[C@@H]1CCCCO[C@@H](CN(C)C)[C@H](C)CN([C@@H](C)CO)C(=O)c2cc(NC(=O)Nc3ccc(C(F)(F)F)cc3)ccc2O1 | inactive
11 | Cc1noc(C)c1S(=O)(=O)N(C)C[C@@H]1OCCCC[C@@H](C)Oc2ccc(NS(=O)(=O)c3cccs3)cc2C(=O)N([C@@H](C)CO)C[C@@H]1C | inactive

Same assay, conditions: purified IRAP, Leu-AMC cleavage fluorescence, 1 h; at 11 µM (top of the series)

Row | Structure (SMILES) | activity change, negative = inhibition
12 | C[C@@H]1CCCCO[C@@H](CN(C)Cc2ccccc2)[C@H](C)CN([C@H](C)CO)C(=O)c2cc(NS(=O)(=O)c3cccs3)ccc2O1 | inactive
13 | Cc1noc(C)c1NC(=O)N(C)C[C@@H]1Oc2c(NC(=O)Nc3ccc(F)cc3)cccc2C(=O)N([C@H](C)CO)C[C@@H]1C | inactive
14 | O=C(C[C@H]1CC[C@H]2[C@@H](COC[C@@H](O)CN2C(=O)Nc2cccc(Cl)c2)O1)N1CCCCC1 | inactive
15 | C[C@@H]1CCCCO[C@@H](CN(C)CC2CCCCC2)[C@H](C)CN([C@@H](C)CO)C(=O)c2cc(NC(=O)Nc3ccccc3)ccc2O1 | inactive
16 | Cc1cc(=O)oc2c(CN3CCN(C)CC3)c(O)c(Cl)cc12 | inactive
17 | C[C@@H]1CCCCO[C@@H](CN(C)C)[C@@H](C)CN([C@@H](C)CO)C(=O)c2cc(NS(=O)(=O)c3ccc(F)cc3)ccc2O1 | inactive
18 | COc1ccc(CN(C)C[C@@H]2OCCCC[C@@H](C)Oc3ccc(NS(=O)(=O)c4cccs4)cc3C(=O)N([C@H](C)CO)C[C@@H]2C)cc1 | inactive
19 | O=C(C[C@@H]1CC[C@@H]2[C@H](COC[C@H](O)CN2C(=O)Nc2cccc(Cl)c2)O1)N1CCCCC1 | inactive
20 | C[C@H]1CN([C@@H](C)CO)C(=O)c2cccc(NC(=O)Nc3ccc(C(F)(F)F)cc3)c2O[C@@H]1CN(C)C | inactive
21 | COc1ccc(NC(=O)Nc2ccc3c(c2)C(=O)N([C@@H](C)CO)C[C@@H](C)[C@H](CN(C)Cc2ccc(C(=O)O)cc2)OCCCC[C@H](C)O3)cc1 | inactive
22 | C[C@H](CO)N1C[C@H](C)[C@H](CN(C)Cc2ccc(C(=O)O)cc2)Oc2c(NC(=O)Nc3ccccc3)cccc2C1=O | inactive
23 | Cc1ccccc1-c1ccc2c(c1)O[C@@H](CN(C)Cc1ccc(C(=O)O)cc1)[C@@H](C)CN([C@@H](C)CO)S2(=O)=O | inactive
24 | COc1ccc(CN(C)C[C@H]2OCCCC[C@@H](C)Oc3ccc(NS(=O)(=O)c4cccs4)cc3C(=O)N([C@H](C)CO)C[C@H]2C)cc1 | inactive
25 | Cc1noc(C)c1S(=O)(=O)Nc1ccc2c(c1)C(=O)N([C@H](C)CO)C[C@@H](C)[C@@H](CN(C)CC1CCCCC1)OCCCC[C@@H](C)O2 | inactive
26 | Cc1ccccc1-c1ccc2c(c1)O[C@@H](CN(C)Cc1ccc(C(=O)O)cc1)[C@@H](C)CN([C@H](C)CO)S2(=O)=O | inactive
27 | CNC[C@H]1OCCCC[C@@H](C)Oc2ccc(NS(=O)(=O)c3ccc(C)cc3)cc2C(=O)N([C@@H](C)CO)C[C@H]1C | inactive
28 | C[C@@H]1CCCCO[C@H](CN(C)Cc2ccc(C(=O)O)cc2)[C@@H](C)CN([C@H](C)CO)C(=O)c2cc(NC(=O)Nc3ccc(C(F)(F)F)cc3)ccc2O1 | inactive
29 | COc1ccc(CN(C)C[C@@H]2OCCCC[C@@H](C)Oc3ccc(NS(=O)(=O)c4cccs4)cc3C(=O)N([C@@H](C)CO)C[C@H]2C)cc1 | inactive
30 | COc1ccc(NC(=O)Nc2ccc3c(c2)C(=O)N([C@H](C)CO)C[C@@H](C)[C@H](CN(C)Cc2ccc(C(=O)O)cc2)OCCCC[C@@H](C)O3)cc1 | inactive
31 | Cc1noc(C)c1NC(=O)N(C)C[C@@H]1Oc2c(NC(=O)Nc3ccccc3)cccc2C(=O)N([C@H](C)CO)C[C@@H]1C | inactive
32 | CCCNC(=O)C[C@@H]1CC[C@@H]2[C@H](COC[C@H](O)CN2C(=O)Nc2cccc(Cl)c2)O1 | inactive
33 | C[C@H]1CN([C@@H](C)CO)C(=O)c2cccc(NC(=O)Nc3ccc4c(c3)OCO4)c2O[C@@H]1CN(C)CC1CC1 | inactive
34 | CCn1cc(CN2CCCC(C(=O)Nc3ccc(-c4nc5ccccc5[nH]4)cc3)C2)c(C)n1 (centres undefined) | inactive
35 | COc1ccc(CN(C)C[C@H]2OCCCC[C@@H](C)Oc3ccc(NS(=O)(=O)c4cccs4)cc3C(=O)N([C@@H](C)CO)C[C@@H]2C)cc1 | inactive

Row | Structure (SMILES) | activity change, negative = inhibition
36 | CO[C@@H]1CN(C)C(=O)c2ccc(NC(=O)Nc3cccc(Cl)c3)cc2OC[C@@H](C)NC[C@H]1C | inactive
37 | C[C@@H]1CCCCO[C@H](CN(C)Cc2ccccc2)[C@H](C)CN([C@H](C)CO)C(=O)c2cc(NS(=O)(=O)c3ccccc3)ccc2O1 | inactive
38 | COc1ccc(CN(C)C[C@@H]2OCCCC[C@@H](C)Oc3ccc(NS(=O)(=O)c4cccs4)cc3C(=O)N([C@H](C)CO)C[C@H]2C)cc1 | inactive
39 | Cc1ccc2nc3c(cc(C(=O)NCc4ccccc4)c(=N)n3CCCn3ccnc3)c(=O)n2c1 | inactive
40 | COc1ccc(S(=O)(=O)Nc2ccc3c(c2)C(=O)N([C@@H](C)CO)C[C@H](C)[C@H](CN(C)C)OCCCC[C@@H](C)O3)cc1 | inactive
41 | O=C(CSc1cn[nH]n1)Nc1cccc(C(=O)O)c1 | inactive
42 | COc1cccc(S(=O)(=O)N(C)C[C@@H]2Oc3ncccc3C(=O)N([C@H](C)CO)C[C@@H]2C)c1 | inactive
43 | COc1ccc(C(=O)O)cc1S(=O)(=O)Nc1cc(C(F)(F)F)ccc1N1CCCCC1 | inactive
44 | O=C(Nc1ccc(C(F)(F)F)cc1)N1[C@@H]2CNC[C@H]1C2c1ccc(-c2ccncc2)cc1 (some centres undefined) | inactive
45 | C[C@@H]1CCCCO[C@@H](CN(C)Cc2ccc(C(=O)O)cc2)[C@@H](C)CN([C@H](C)CO)C(=O)c2cc(NC(=O)Nc3cccc4ccccc34)ccc2O1 | inactive
46 | N#Cc1c(N2CCNCC2)nc(-c2ccco2)c2c1CCCC2 | inactive
47 | C[C@@H]1CCCCO[C@H](CN(C)Cc2ccc(C(=O)O)cc2)[C@H](C)CN([C@@H](C)CO)C(=O)c2cc(NC(=O)Nc3ccc(C(F)(F)F)cc3)ccc2O1 | inactive
48 | CCCN(C)C[C@@H]1OCCCC[C@@H](C)Oc2ccc(NS(=O)(=O)c3cccs3)cc2C(=O)N([C@H](C)CO)C[C@@H]1C | inactive
49 | C[C@@H]1CCCCO[C@H](CN(C)C)[C@H](C)CN([C@H](C)CO)C(=O)c2cc(NS(=O)(=O)c3ccc(Cl)cc3)ccc2O1 | inactive
50 | C[C@@H]1CN([C@H](C)CO)C(=O)c2cccc(NC(=O)Nc3ccccc3)c2O[C@@H]1CN(C)Cc1ccc(C(=O)O)cc1 | inactive
51 | Cc1ccc(-c2cc(C(=O)N3CCCC3)c3ccccc3n2)s1 | inactive
52 | C[C@@H]1CCCCO[C@@H](CN(C)C)[C@@H](C)CN([C@@H](C)CO)C(=O)c2cc(NS(=O)(=O)c3ccc(Cl)cc3)ccc2O1 | inactive
53 | C[C@H](CO)N1C[C@H](C)[C@H](CN(C)Cc2ccncc2)Oc2c(NC(=O)Nc3ccc(C(F)(F)F)cc3)cccc2C1=O | inactive
54 | COc1ccc2c3c([nH]c2c1)[C@H](CO)N(Cc1cc(F)ccc1F)CC31CN(C)C1 | inactive
55 | C[C@@H]1CCCCO[C@@H](CN(C)CC2CC2)[C@@H](C)CN([C@H](C)CO)C(=O)c2cc(NS(=O)(=O)c3ccc(Cl)cc3)ccc2O1 | inactive
56 | COc1ccc(CN(C)C[C@@H]2OCCCC[C@H](C)Oc3ccc(NS(=O)(=O)c4cccs4)cc3C(=O)N([C@H](C)CO)C[C@@H]2C)cc1 | inactive
57 | O=C(O)c1cccc(NC(=O)c2ccccc2NC(=O)c2cccc([N+](=O)[O-])c2)c1 | inactive
58 | CCCN(C)C[C@@H]1OCCCC[C@@H](C)Oc2ccc(NS(=O)(=O)c3ccc(F)cc3)cc2C(=O)N([C@H](C)CO)C[C@@H]1C | inactive
59 | COc1ccc(CN(C)C[C@H]2OCCCC[C@@H](C)Oc3ccc(NS(=O)(=O)c4cccs4)cc3C(=O)N([C@@H](C)CO)C[C@H]2C)cc1 | inactive

Reference: PubChem BioAssay AID743340 (Broad Institute, 2014)
